Test results taken from USRE48461E1, “Modulation of androgen receptor expression” (Ionis Pharmaceuticals, Inc., priority 2012, dated 2021).

Assays:
Type in all cases: cell-based, human
TMPRSS2 mRNA [1] = assay: TMPRSS2 expression in VCaP cells; settings: RNAiMax, 48 hrs
Description: (§1) Cells were plated at 10,000 cells per well. […] After an incubation period of 48 hrs, RNA levels of full length AR, the V7 variant, PSA and TMPRSS2 were measured.
(§2) After an incubation period of 48 hrs, RNA levels of full length AR, the V7 variant, PSA and TMPRSS2 were measured. The data is presented in Tables 108 expressed as percent expression of gene levels compared to the untreated control.
(§3) Cells were plated at 15,000 cells per well and cultured in CSS media for 16 hours. […] After 4 hrs, 1 nM DHT was added. […] After an incubation period of 48 hrs, RNA levels of AR, PSA and TMPRSS2 were measured.

PSA mRNA = assay: PSA expression in VCaP cells; settings: RNAiMax, 48 hrs
Description: as §1, §2, §3

TMPRSS2 mRNA [2] = assay: TMPRSS2 expression in C4-2B cells (Example 30); settings: 48 hrs
Description: Cells were plated at 1,000 cells per well. […] ISIS 549148 was included as a negative control. […] After an incubation period of 48 hrs, RNA levels of AR, PSA and TMPRSS2 were measured.
Cells were plated at 2,000 cells per well and cultured in CSS media with 1 nM DHT. […] ISIS 549148 was included as a negative control. […] After an incubation period of 48 hrs, RNA levels of AR, PSA and TMPRSS2 were measured. In the absence of DHT, AR expression in C4-2 cells was 188%, PSA expression was 43% and TMPRSS2 expression was 27% compared to the untreated control.

TMPRSS2 mRNA [3] = assay: TMPRSS2 expression in LNCaP cells (complete, CSS+DHT medium); settings: for Percent inhibition of TMPRSS2 expression in LNCaP cells cultured in CSS + DHT medium: CSS + DHT (1 nM) medium, 48 hrs; for Percent inhibition of TMPRSS2 expression in LNCaP cells cultured in complete medium: 48 hours
Description: Cells were plated at 1,000 cells per well. […] ISIS 549148 was included as a negative control. […] After an incubation period of 48 hours, RNA levels of AR, PSA and TMPRSS2 were measured.
Cells were plated at 2,000 cells per well and cultured in phenol red-free RPMI supplemented with 5% charcoal stripped serum (Gibco) media for 16 hours. […] ISIS 549148 was included as a negative control. […] After an incubation period of 4 hrs, DHT was added to the medium to a final concentration of 1 nM as indicated. RNAs were collected 48 hrs later and levels of AR, PSA and TMPRSS2 were measured. In the absence of DHT, AR expression in LNCaP cells was 95%, PSA expression was 7% and TMPRSS2 expression was 24% compared to the untreated control.

TMPRSS2 mRNA [4] = assay: TMPRSS2 expression in 22RV1 cells; settings: RNAiMax, 48 hrs
Description: Cells were plated at 1,000 cells per well. […] After an incubation period of 48 hrs, RNA levels of full length AR, the V7 variant, PSA and TMPRSS2 were measured.
After an incubation period of 48 hrs, RNA levels of full length AR, the V7 variant, PSA and TMPRSS2 were measured.
Cells were plated at 2,000 cells per well and cultured in CSS media for 16 hours. […] After 4 hrs, 1 nM DHT was added. […] After an incubation period of 48 hrs, RNA levels of AR, AR V7 variant, PSA and TMPRSS2 were measured.

C4-2B cells = assay: C4-2B cell proliferation (complete or CSS+DHT medium; Example 30); settings: C4-2B cells, 5 days
Description: After a treatment period of 5 days in complete medium or CSS+1 nM DHT medium, the proliferative capacity of the cancer cells was measured with using CellTiter 96® AQueous One or CellTiter-Glo® Solution Cell Proliferation kit (Promega), following the manufacturer's instructions.

[5] = system: prostate-specific antigen (PSA) mRNA; assay: Time-course PSA expression in C4-2B cells
Description: C4-2B cells were plated at 1,000 cells per well in complete medium. […] ISIS 549148 was included as a negative control. […] After a treatment period of 8 hours, 24 hours, and 48 hours, AR expression was measured with primer probe set hAR-LTS00943. Results are presented in Tables 70-72 as percent expression of AR, relative to non-treated cells.
Expression analysis of prostate-specific antigen (PSA) and TMPRSS2 were also analyzed. Results are presented in Tables 73-75 as percent inhibition of PSA expression and Tables 76-78 as percent inhibition of TMPRSS2 expression, relative to non-treated cells.

## GGCTACTACGCCGTCA (3-10-3 (S)-cEt gapmer, chemistry not fully specified) [ISIS 549148, reference compound]
TMPRSS2 mRNA [1]; CSS + DHT medium, 1.34 nM
  Percent inhibition of TMPRSS2 expression: 0%
TMPRSS2 mRNA [1]; CSS + DHT medium, 4.0 nM
  Percent inhibition of TMPRSS2 expression: 0%
TMPRSS2 mRNA [1]; CSS + DHT medium, 13.4 nM
  Percent inhibition of TMPRSS2 expression: 0%
TMPRSS2 mRNA [1]; CSS + DHT medium, 40 nM
  Percent inhibition of TMPRSS2 expression: 0%
TMPRSS2 mRNA [1]; complete medium, 1.34 nM
  Percent inhibition of TMPRSS2 expression: 0%
TMPRSS2 mRNA [1]; complete medium, 4.0 nM
  Percent inhibition of TMPRSS2 expression: 0%
TMPRSS2 mRNA [1]; complete medium, 13.4 nM
  Percent inhibition of TMPRSS2 expression: 0%
TMPRSS2 mRNA [1]; complete medium, 40 nM
  Percent inhibition of TMPRSS2 expression: 0%
PSA mRNA; CSS + DHT medium, 1.34 nM
  Percent inhibition of PSA expression: 0%
PSA mRNA; CSS + DHT medium, 4.0 nM
  Percent inhibition of PSA expression: 3%
PSA mRNA; CSS + DHT medium, 13.4 nM
  Percent inhibition of PSA expression: 9%
PSA mRNA; CSS + DHT medium, 40 nM
  Percent inhibition of PSA expression: 0%
PSA mRNA; complete medium, 1.34 nM
  Percent inhibition of PSA expression: 2%
PSA mRNA; complete medium, 4.0 nM
  Percent inhibition of PSA expression: 0%
PSA mRNA; complete medium, 13.4 nM
  Percent inhibition of PSA expression: 0%
PSA mRNA; complete medium, 40 nM
  Percent inhibition of PSA expression: 20%
TMPRSS2 mRNA [2]; CSS + DHT medium, 0.04 μM
  Percent inhibition of TMPRSS2 expression: 0%
TMPRSS2 mRNA [2]; CSS + DHT medium, 0.2 μM
  Percent inhibition of TMPRSS2 expression: 0%
TMPRSS2 mRNA [2]; CSS + DHT medium, 1 μM
  Percent inhibition of TMPRSS2 expression: 0%
TMPRSS2 mRNA [2]; CSS + DHT medium, 5.0 μM
  Percent inhibition of TMPRSS2 expression: 3%
TMPRSS2 mRNA [2]; complete medium, 0.04 μM
  Percent inhibition of TMPRSS2 expression: 0%
TMPRSS2 mRNA [2]; complete medium, 0.2 μM
  Percent inhibition of TMPRSS2 expression: 2%
TMPRSS2 mRNA [2]; complete medium, 1 μM
  Percent inhibition of TMPRSS2 expression: 4%
TMPRSS2 mRNA [2]; complete medium, 5.0 μM
  Percent inhibition of TMPRSS2 expression: 0%
TMPRSS2 mRNA [3]; 0.04 μM
  Percent inhibition of TMPRSS2 expression in LNCaP cells cultured in CSS + DHT medium: 0%
  Percent inhibition of TMPRSS2 expression in LNCaP cells cultured in complete medium: 0%
TMPRSS2 mRNA [3]; 0.2 μM
  Percent inhibition of TMPRSS2 expression in LNCaP cells cultured in CSS + DHT medium: 0%
  Percent inhibition of TMPRSS2 expression in LNCaP cells cultured in complete medium: 0%
TMPRSS2 mRNA [3]; 1 μM
  Percent inhibition of TMPRSS2 expression in LNCaP cells cultured in CSS + DHT medium: 1%
  Percent inhibition of TMPRSS2 expression in LNCaP cells cultured in complete medium: 0%
TMPRSS2 mRNA [3]; 5.0 μM
  Percent inhibition of TMPRSS2 expression in LNCaP cells cultured in CSS + DHT medium: 10%
  Percent inhibition of TMPRSS2 expression in LNCaP cells cultured in complete medium: 0%
TMPRSS2 mRNA [4]; CSS + DHT medium, 1.34 nM
  Percent inhibition of TMPRSS2 expression: 0%
TMPRSS2 mRNA [4]; CSS + DHT medium, 4.0 nM
  Percent inhibition of TMPRSS2 expression: 3%
TMPRSS2 mRNA [4]; CSS + DHT medium, 13.4 nM
  Percent inhibition of TMPRSS2 expression: 1%
TMPRSS2 mRNA [4]; complete medium, 1.34 nM
  Percent inhibition of TMPRSS2 expression: 15%
TMPRSS2 mRNA [4]; complete medium, 4.0 nM
  Percent inhibition of TMPRSS2 expression: 9%
TMPRSS2 mRNA [4]; complete medium, 13.4 nM
  Percent inhibition of TMPRSS2 expression: 14%
TMPRSS2 mRNA [4]; complete medium, 40 nM
  Percent inhibition of TMPRSS2 expression: 4%
C4-2B cells; CSS + DHT medium, 0.04 μM
  Proliferation (% untreated control): 109 % untreated control
C4-2B cells; CSS + DHT medium, 0.2 μM
  Proliferation (% untreated control): 131 % untreated control
C4-2B cells; CSS + DHT medium, 1 μM
  Proliferation (% untreated control): 119 % untreated control
C4-2B cells; CSS + DHT medium, 5.0 μM
  Proliferation (% untreated control): 114 % untreated control
C4-2B cells; complete medium, 0.04 μM
  Proliferation (% untreated control): 119 % untreated control
C4-2B cells; complete medium, 0.2 μM
  Proliferation (% untreated control): 97 % untreated control
C4-2B cells; complete medium, 1 μM
  Proliferation (% untreated control): 103 % untreated control
C4-2B cells; complete medium, 5.0 μM
  Proliferation (% untreated control): 98 % untreated control
[5]; 0.04 μM
  Percent inhibition of PSA expression compared to the control group in 8 hours: 1%
  Percent inhibition of PSA expression compared to the control group in 24 hours: 22%
  Percent inhibition of PSA expression compared to the control group in 48 hours: 2%
[5]; 0.2 μM
  Percent inhibition of PSA expression compared to the control group in 8 hours: 8%
  Percent inhibition of PSA expression compared to the control group in 24 hours: 13%
  Percent inhibition of PSA expression compared to the control group in 48 hours: 0%
[5]; 1 μM
  Percent inhibition of PSA expression compared to the control group in 8 hours: 8%
  Percent inhibition of PSA expression compared to the control group in 24 hours: 16%
  Percent inhibition of PSA expression compared to the control group in 48 hours: 18%
[5]; 5.0 μM
  Percent inhibition of PSA expression compared to the control group in 8 hours: 0%
  Percent inhibition of PSA expression compared to the control group in 24 hours: 6%
  Percent inhibition of PSA expression compared to the control group in 48 hours: 10%
